{"source": "patent EP2849731B1", "about": "“FORMULATION FOR LOW BIOAVAILABILITY SUBSTANCES CONTAINING A N-ACETYLCYSTEINE-CHITOSAN SALT” (Labomar S.r.l., priority 2012, dated 2013)", "key": {"[1]": {"assay": "Curcumin detection by HPLC-UV in the 0.25% w/w solution of Composition A in buffer", "format": "physicochemical", "conditions": "due to incomplete solubility in the buffers"}, "[2]": {"assay": "Intestinal passage test: curcumin passage through the Caco-2 monolayer, HPLC-UV", "conditions": "human", "description": "The passage through a monolayer of Caco-2 cells of Composition A at non-cytotoxic concentration is monitored at defined times (0 min- 15 min -30 min and 60 min).\nThe Caco-2 cells grown as a monolayer on a permeable artificial support reproduce the intestinal epithelial layer (monolayer of cells that are polarized and coupled by tight junctions). The flow through the monolayer allows to establish the permeability of a substance.\nAfter 21 days of growth on insert, the differentiated cells show an apical side, corresponding to the intestinal lumen in vivo, and one that corresponds to the basolateral compartment of the blood and lymphatic circulation of the organism.\nThe culture medium is aspirated from all cell monolayers before the experiments of permeability. All cell monolayers are washed once with HBSS solution (Hank's Balanced Salt Solution) and left to equilibrate at 37°C for 20 min. […] In parallel, the same amount of substance is divided into equal aliquots and represents the apical sample at time = 0 minutes (0'AP). At the receiving side of the monolayer 1.2 mL of 1X HBSS-Hepes 1% (pH 7.4) are added. […]\nUsing the mathematical formulas described by Arturrson the relationships are calculated between concentrations of substances in the basolateral (receiver) and in the apical (donor) compartments at each sampling time."}}}
{"smiles": "COc1cc(/C=C/C(=O)CC(=O)/C=C/c2ccc(O)c(OC)c2)ccc1O", "note": "[Curcumin, curcumin]", "values": [{"measurement": "loss in title (theoretical curcumin content not detected in the solution)", "setting": "[1]", "result": 23, "unit": "%"}, {"measurement": "Papp A→B at 60 min, 1.404 mM", "setting": "[2]", "result": 0.804, "unit": "×10⁻⁶ cm/s"}]}
